Test results from patent publication US11071731B2, “Allosteric modulators of the mu opioid receptor” (Chiromics, LLC, priority 2017, dated 2021).

Legend:
mu opioid receptor (MOR) [1] = target: T1, mu opioid receptor (MOR) (Homo sapiens, UniProt P35372); experiment: PathHunter β-arrestin recruitment assay, PAM mode with EC20 endomorphin-1; assay type: cell-based
Description: The effects of MOR PAMs and MOR SAMs on receptor activity were assayed using the PathHunter enzyme complementation assay technology (DiscoveRx, CA). A description of the technology employed is as follows.
Beta-Arrestin Pathway: The PathHunter β-arrestin assay monitors the activation of a GPCR in a homogenous, non-imaging assay format using a technology developed by DiscoveRx called Enzyme Fragment Complementation (EFC) with beta-galactosidase (β-Gal) as the functional reporter. […] EA is fused to β-Arrestin and ED is fused to the GPCR of interest. When the GPCR is activated and β-arrestin is recruited to the receptor, ED and EA complementation occurs, restoring β-gal activity, which is measured using chemiluminescent PathHunter Detection Reagents.
In this manner an EC50 for each test compound, and percent maximal response for each test compound, were determined for both the β-arrestin and cAMP pathways. Though the pharmacological effects of a given signal bias can be hypothesized (Raehal et al. (2011) Pharmacol. Rev. 63:1001-1019), it is not possible to know with certainty which bias ratio will be most advantageous in a clinical setting. […] Kenakin 2015a, supra. The information associated with the compounds detailed herein is the first large data set available for the prediction of ligand bias for an MOR PAM.

mu opioid receptor (MOR) [2] = target: T1, mu opioid receptor (MOR); experiment: Hit Hunter cAMP signaling assay (adenylyl cyclase inhibition), PAM mode with EC20 endomorphin-1; assay type: cell-based
[3] = maximal response for β-arrestin recruitment
[4] = β-arrestin recruitment, read-out: β-arr. EC50
[5] = cAMP EC50, adenylyl cyclase inhibition
[6] = maximal response for adenylyl cyclase inhibition
[7] = adenylyl cyclase inhibition, read-out: cAMP EC50

T1 sequence (P35372 whole entry): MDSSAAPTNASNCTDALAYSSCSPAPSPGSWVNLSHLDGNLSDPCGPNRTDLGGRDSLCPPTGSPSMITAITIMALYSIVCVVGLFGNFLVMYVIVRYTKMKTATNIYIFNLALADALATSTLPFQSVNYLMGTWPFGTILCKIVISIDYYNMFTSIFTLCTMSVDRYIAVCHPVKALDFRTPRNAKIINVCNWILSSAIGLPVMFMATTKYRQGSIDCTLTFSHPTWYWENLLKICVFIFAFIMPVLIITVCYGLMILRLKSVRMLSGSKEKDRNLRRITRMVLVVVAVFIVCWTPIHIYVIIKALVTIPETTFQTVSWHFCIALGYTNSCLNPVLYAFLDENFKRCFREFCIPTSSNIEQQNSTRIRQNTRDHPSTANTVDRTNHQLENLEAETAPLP

Compound	β-arr Max. Resp. (mu opioid receptor (MOR) [1]; [3])	EC50 (mu opioid receptor (MOR) [1]; [4])	EC50 (mu opioid receptor (MOR) [2]; [5])	cAMP Max. Resp. (mu opioid receptor (MOR) [2]; [6])	EC50 (mu opioid receptor (MOR) [2]; [7])	β-arrestin Max Response (mu opioid receptor (MOR) [1]; β-arrestin recruitment, activity switching by MOR PAMs)	EC50 (mu opioid receptor (MOR) [1]; β-arrestin recruitment, activity switching by MOR PAMs, read-out: β-arrestin EC50)	cAMP Max Resp. (mu opioid receptor (MOR) [2]; adenylyl cyclase inhibition, activity switching by MOR PAMs)	EC50 (mu opioid receptor (MOR) [2]; adenylyl cyclase inhibition, activity switching by MOR PAMs, read-out: cAMP EC50)	β-arr Max. Resp. (mu opioid receptor (MOR) [1]; maximal response, β-arrestin recruitment)	cAMP Max. Resp. (mu opioid receptor (MOR) [2]; maximal response, adenylyl cyclase inhibition)	EC50 (mu opioid receptor (MOR) [2]; read-out: cAMP EC50, adenylyl cyclase inhibition)
Oc1ncnc(N2CCCCC2c2cccc(C(F)(F)F)c2)c1F (stereo not drawn) [compound 356]	D (D represents a maximal response of < 40%)	< 700 nM	< 700 nM	D (D represents a maximal response of < 40%)	–	–	–	–	–	–	–	–
Fc1cnc(Cl)nc1N1CCCCC1c1cccc2nccn12 (stereo not drawn) [compound 284]	D (D represents a maximal response of < 40%)	> 2100 nM	> 2100 nM	E (E represents a maximal response of 40-60%)	–	–	–	–	–	–	–	–
Fc1ccc(C2C(F)CCCN2c2nc(Cl)ncc2F)cc1Br (stereo not drawn) [compound 211]	F (F represents a maximal response of > 60%)	> 2100 nM	> 2100 nM	E (E represents a maximal response of 40-60%)	–	–	–	–	–	–	–	–
FC(F)(F)c1cccc(C2CCCCN2c2ccnc(Cl)n2)c1 (stereo not drawn) [compound 257]	F (F represents a maximal response of > 60%)	> 2100 nM	> 2100 nM	D (D represents a maximal response of < 40%)	–	–	–	–	–	–	–	–
CC1CCN(S(=O)(=O)c2ccc(Cl)cc2)C1c1ccc(F)c(Br)c1 (stereo not drawn) [Compound 106]	F (F represents a maximal response of > 60%)	700 to 2100 nM	–	D (D represents a maximal response of < 40%)	< 700 nM	–	–	–	–	–	–	–
O=S(=O)(c1ccc(Cl)cc1)N1CCCCC1c1nccc(C(F)(F)F)n1 (racemic) [compound 73]	F (F represents a maximal response of > 60%)	> 2100 nM	–	D (D represents a maximal response of < 40%)	> 2100 nM	F (F represents a maximal response of >60%)	> 2100 nM	D (D represents a maximal response of < 40%)	> 2100 nM	–	–	–
FC(F)(F)c1cccc(C2CCCCN2Cc2cccc(Cl)c2)n1 (stereo not drawn) [compound 170]	F (F represents a maximal response of > 60%)	700 to 2100 nM	< 700 nM	E (E represents a maximal response of 40-60%)	–	–	–	–	–	–	–	–
O=S(=O)(c1ccc(Cl)cc1)N1CCCCC1c1ccnc(F)c1 (racemic) [compound 59]	F (F represents a maximal response of > 60%)	> 2100 nM	–	F (F represents a maximal response of > 60%)	> 2100 nM	–	–	–	–	–	–	–
Fc1ccc(C2CC(C(F)(F)F)CN2c2nc(Cl)ncc2F)cc1Cl (stereo not drawn) [compound 476]	–	> 2100 nM	–	–	> 2100 nM	–	–	–	–	E (E represents a maximal response of 40-60%)	D (D represents a maximal response of < 40%)	–
[2H]C1(c2cccc(C(F)(F)F)c2)C(F)CCCN1Cc1cccc(Br)c1 (stereo not drawn) [compound 206]	F (F represents a maximal response of > 60%)	700 to 2100 nM	700 to 2100 nM	E (E represents a maximal response of 40-60%)	–	–	–	–	–	–	–	–
Fc1cnc(Cl)nc1N1CCCCC1c1cccc(C(F)(F)F)c1 (stereo not drawn) [compound 7]	F (F represents a maximal response of > 60%)	< 700 nM	< 700 nM	F (F represents a maximal response of > 60%)	–	–	–	–	–	–	–	–
Fc1ccc(Cl)nc1N1CCCCC1c1ccc(C(F)(F)F)nc1 (stereo not drawn) [compound 415]	D (D represents a maximal response of < 40%)	< 700 nM	< 700 nM	D (D represents a maximal response of < 40%)	–	–	–	–	–	–	–	–
COc1ccc(C2CCCCN2Cc2cccc(Cl)c2F)cc1Br (stereo not drawn) [compound 245]	D (D represents a maximal response of < 40%)	> 2100 nM	> 2100 nM	D (D represents a maximal response of < 40%)	–	–	–	–	–	–	–	–
Fc1ccc(C2CCCCN2c2nc(Cl)ncc2F)nc1 (stereo not drawn) [compound 372]	D (D represents a maximal response of < 40%)	< 700 nM	< 700 nM	D (D represents a maximal response of < 40%)	–	–	–	–	–	–	–	–
FC(F)(F)c1cccc(C2CCCCN2Cc2cccc(Cl)n2)n1 (stereo not drawn) [compound 165]	F (F represents a maximal response of > 60%)	> 2100 nM	700 to 2100 nM	F (F represents a maximal response of > 60%)	–	–	–	–	–	–	–	–
COc1ccc(C2C(F)CCCN2c2nc(Cl)ncc2F)cc1Br (stereo not drawn) [compound 213]	F (F represents a maximal response of > 60%)	> 2100 nM	–	D (D represents a maximal response of < 40%)	–	–	–	–	–	–	–	> 2100 nM
Fc1cnc(Cl)nc1N1CCCCC1c1cccc2ccncc12 (stereo not drawn) [compound 286]	D (D represents a maximal response of < 40%)	> 2100 nM	> 2100 nM	D (D represents a maximal response of < 40%)	–	–	–	–	–	–	–	–
